# Laboratory results: patent US4798898A, “Antitussive and mucus regulating 2-substituted thiazolidines” (Boehringer Biochemia Robin S.p.A., priority 1984, dated 1989)
# Experiments:
# [1] = test system: pathological sputum of bronchitic rabbits; test: Mucus regulating properties in bronchitic rabbits (sputum AUC as % compared to bronchitic controls); format: in vivo, male New Zealand white rabbits; details: for mucus regulating activity (in words): rabbit, in vivo; for Fucose (mg/ml), AUC as a 100% compared to bronchitic controls / Galactose (mg/ml), AUC as a 100% compared to bronchitic controls / Mucus production (ml/kg), AUC as a 100% compared to bronchitic controls / Phospholipids (mg/ml), AUC as a 100% compared to bronchitic controls / Protein (mg/ml), AUC as a 100% compared to bronchitic controls / Sialic acid (mg/ml), AUC as a 100% compared to bronchitic controls / Viscosity (cps), AUC as a 100% compared to bronchitic controls: Table 2, oral, equimolecular amounts to S-carboxymethyl cysteine
# Procedure: The animals are submitted to inhalation of a 5% H2 SO3 aqueous solution by aerosol (exposition of 3 hours a day for 3 alternate days), to induce a chronic bronchial inflammatory disease which causes a production of pathological sputum in the bronchial tree.
# Aim of the experiments is to evaluate modifications of selective parameters such as dry weight of the sputum, viscosity, content in proteins, phospholipids, galactose, sialic acid and fucose, induced in this pathological sputum by pharmacological treatment with the compounds of the invention.
# To this purpose, the sputum produced in the bronchial tree is collected daily, through a "T" shaped glass cannula, inserted in the trachea, before and after oral twice a day (9.00 a.m. and 4.00 p.m.) treatment with one of the compounds of the invention.
# The schedule treatment procedure is shown in the following Scheme 1: [drawing 21] where 0 indicates the day of implantation of the tracheal cannula; -7-5-3 indicate the days of H2 SO3 treatment (H); 1, 2, 3, 4 indicate the days of oral administration of the compounds of the invention (T) and the time of mucus collection (M).
# The mucus collected in day 1 in the morning is considered as a blank; 7 indicates the day of the animal sacrifice after the mucous collection.
# The sputum samples are stored in the freezer (-20° C.) until the investigation of biological and rheological parameters is carried out.
# The samples are investigated for relative viscosity, measured at 37° C. with a Brookfield viscometer (model LT VD) equipped with a 1,565° cone-plate, and aliquoted for biochemical analysis of protein, phospholipids, galactose, sialic acid and fucose contents. Dry weight of the mucus is also determined. For each parameter, cumulative data are referred to a seven days period after the beginning of the treatment and they are extrapolated using the AUC method (area under curve) calculated by the trapazoidal rule. Finally the data are compared with data obtained from controls (vehicle treatment), non bronchitic rabbits (vehicle treatment) and positive controls bronchitic rabbits treated with 0.153M […].
# [2] = test system: cough induced by citric acid aerosol in guinea pigs; test: Guinea pig cough test (citric acid aerosol, Charlier procedure); format: in vivo; details: Cavia porcellus, inhaled or nasal, antitussive test not given
# [3] = test system: cough induced by citric acid aerosol in guinea pigs; test: as above; format: in vivo
# Procedure: (§1) The techniques described by Charlier et al. (Arch. Int. Pharmacodyn. 134, 306, 1961) and by Stefko et al. (J. Pharm. Exp. Therap., 108, 217, 1953), adapted with minor modifications, are used to investigate the antitussive properties of the compounds of the invention. Codeine phosphate is used as positive reference compound.
# According to the Charlier procedure guinea pigs are exposed to a citric acid aerosol (7.5%) and cough is recorded 60 minutes after the antitussive treatment by i.p. route. Male animals of 300-400 g pigs are placed in perspex box (20×30×30 cm) connected to an aerosol compressor; the animals are subjected to a citric acid saturated atmosphere, 60 minutes after the i.p. injection of a compound of the invention (0.1 and 0.3M solutions; 1 ml/kg).
# The total number of cough strokes and the delay of the first cough are recorded during the first five minutes.
# Five guinea pigs are used for each dose level and the results are compared with controls (vehicle treatment) and codeine phosphate 0.07M solution (standard treatment).
# ED50 and the corresponding delay of first cough stroke are calculated.
# The data obtained by i.p. administration are confirmed by oral administration.
# [4] = test system: cough induced by electric stimulation in dogs; test: Dog cough test (cough induced by electric stimulation, Stefko procedure); format: in vivo, conscious mongrel dogs
# Procedure: as §1
# In the Stefko procedure, conscious mongrel dogs (15±3 kg body weight) are used; the compounds of the invention are tested for their ability to inhibit cough induced by electric stimulation.
# Under general anesthesia, two insulated nichrome wires (0.4 mm diameter) are surgically implanted into the submucosa of the trachea.
# About two days later, the dogs are placed in a sling and the exteriorized electrodes are connected to an electric stimulating device (such as Grass S 48 Mod.).
# The stimulation parameters such as: delay 0.01 msec, duration 1 msec, frequency 30 Hz, are used.
# An electrical stimulus of 1 sec is applied 10 times at 5 sec intervals in order to determine the minimum voltage necessary for eliciting reproducible cough responses. Then, tussive responses to the electrical stimuli are registered at 15, 30, 60, 90, 120, 150, 180, 240, 300 and 360 minutes after oral administration of the compounds of the invention.
# The tussive responses are scored as follows: 1: no response; 2: sigh or exaggerated expiration; 3: marked cough; 4: one marked cough and one exaggerated expiration: 5: two marked coughs.
# Six dogs are employed for each determination and the mean activity is calculated.
# The inhibition percent of the cough response and the duration of activity are compared with codeine.
# [5] = test system: mice; test: Sedative effect; format: in vivo
# [6] = Acute toxicity in mice; details: mouse, in vivo
# [7] = test system: guinea pig trachea smooth muscle strips; test: In vitro relaxation of guinea pig trachea smooth muscle strips contracted by methacoline; details: Cavia porcellus, contracted by methacoline, read-out: ED50 (relaxation of trachea smooth muscle strips)
structure (smiles),measurement,setting,value
O=C(Cn1ccnc1)N1CCSC1COc1ccccc1O (stereo not shown) [3-(imidazol-1'-yl)acetyl-2-[(o-hydroxyphenoxy)methyl]thiazolidone],mucus regulating activity (in words),[1],strong mucus regulating activity
same,ED50,[2],96 mg/kg
COc1ccccc1OCC1SCCN1C(=O)Cn1ccnc1 (stereo not shown) [3-(imidazol-1-yl)acetyl-2-(o-methoxyphenoxy)methyl-thiazolidine],"Fucose (mg/ml), AUC as a 100% compared to bronchitic controls",[1],97.5%
same,"Galactose (mg/ml), AUC as a 100% compared to bronchitic controls",[1],21.8%
same,"Mucus production (ml/kg), AUC as a 100% compared to bronchitic controls",[1],162.5%
same,"Phospholipids (mg/ml), AUC as a 100% compared to bronchitic controls",[1],65.8%
same,"Protein (mg/ml), AUC as a 100% compared to bronchitic controls",[1],55.2%
same,"Sialic acid (mg/ml), AUC as a 100% compared to bronchitic controls",[1],63.8%
same,"Viscosity (cps), AUC as a 100% compared to bronchitic controls",[1],39.1%
same,mucus regulating activity (in words),[1],strong mucus regulating activity
same,ED50,[2],40.6 mg/kg
COc1ccccc1OCC1SCCN1C(=O)OC(C)(C)C (stereo not shown) [3-BOC-2-(O-methoxyphenoxy)-methyl-thiazolidine],ED50,[2],3 to 30 mg/kg
COc1ccccc1OCC1SCCN1C(=O)C1CC1 (stereo not shown) [3-cyclopropylcarbonyl-2-(o-methoxyphenoxy)methylthiazolidine],"Fucose (mg/ml), AUC as a 100% compared to bronchitic controls",[1],103.6%
same,"Galactose (mg/ml), AUC as a 100% compared to bronchitic controls",[1],60.0%
same,"Mucus production (ml/kg), AUC as a 100% compared to bronchitic controls",[1],90%
same,"Phospholipids (mg/ml), AUC as a 100% compared to bronchitic controls",[1],74.5%
same,"Protein (mg/ml), AUC as a 100% compared to bronchitic controls",[1],57.9%
same,"Sialic acid (mg/ml), AUC as a 100% compared to bronchitic controls",[1],60%
same,"Viscosity (cps), AUC as a 100% compared to bronchitic controls",[1],92.6%
same,antitussive properties (in words),[3],devoid of any antitussive properties
same,antitussive properties (in words),[4]; dog cough test,devoid of any antitussive properties
CCOC(=O)C(=O)N1CCSC1COc1ccccc1OC (stereo not shown) [3-ethoxyoxalyl-2-(o-methoxyphenoxy)methyl-thiazolidine],"Fucose (mg/ml), AUC as a 100% compared to bronchitic controls",[1],149.3%
same,"Galactose (mg/ml), AUC as a 100% compared to bronchitic controls",[1],52.3%
same,"Mucus production (ml/kg), AUC as a 100% compared to bronchitic controls",[1],108.7%
same,"Phospholipids (mg/ml), AUC as a 100% compared to bronchitic controls",[1],59.8%
same,"Protein (mg/ml), AUC as a 100% compared to bronchitic controls",[1],62%
same,"Sialic acid (mg/ml), AUC as a 100% compared to bronchitic controls",[1],56.8%
same,"Viscosity (cps), AUC as a 100% compared to bronchitic controls",[1],65.1%
same,antitussive properties (in words),[3],devoid of any antitussive properties
same,antitussive properties (in words),[4]; dog cough test,devoid of any antitussive properties
COc1ccccc1OCC1SCCN1C(=O)CN (stereo not shown) [3-glycinyl-2-(O-methoxyphenoxy)methyl-thiazolidine],ED50,[2],3 to 30 mg/kg
CCOC(=O)[C@@H]1CSC(COc2ccccc2OC)N1C(=O)CSC(C)=O (stereo partly shown) [4-carbethoxy-2-(o-methoxyphenoxy)methyl-3-acetylthioacetyl-thiazolidine],"Fucose (mg/ml), AUC as a 100% compared to bronchitic controls",[1],111%
same,"Galactose (mg/ml), AUC as a 100% compared to bronchitic controls",[1],69%
same,"Mucus production (ml/kg), AUC as a 100% compared to bronchitic controls",[1],65%
same,"Phospholipids (mg/ml), AUC as a 100% compared to bronchitic controls",[1],102%
same,"Protein (mg/ml), AUC as a 100% compared to bronchitic controls",[1],79%
same,"Sialic acid (mg/ml), AUC as a 100% compared to bronchitic controls",[1],78%
same,"Viscosity (cps), AUC as a 100% compared to bronchitic controls",[1],91%
same,"sedative effect, starting dose",[5],≥ 30 mg/kg
same,LD50,[6]; ip,670 mg/kg
same,LD50,"[6]; po, os",760 mg/kg
COc1ccccc1OCC1N[C@H](C(=O)O)CS1 (stereo partly shown) [4-carboxy-2-(o-methoxyphenoxymethyl)thiazolidine],"Fucose (mg/ml), AUC as a 100% compared to bronchitic controls",[1],55%
same,"Galactose (mg/ml), AUC as a 100% compared to bronchitic controls",[1],29%
same,"Mucus production (ml/kg), AUC as a 100% compared to bronchitic controls",[1],95%
same,"Phospholipids (mg/ml), AUC as a 100% compared to bronchitic controls",[1],49%
same,"Protein (mg/ml), AUC as a 100% compared to bronchitic controls",[1],48%
same,"Sialic acid (mg/ml), AUC as a 100% compared to bronchitic controls",[1],52%
same,"Viscosity (cps), AUC as a 100% compared to bronchitic controls",[1],40%
same,ED50,"[3]; guinea pig cough test, i.p., 60 minutes after treatment",inactive
same,duration of action,"[4]; dog cough test, in words",middle
same,% inhibition of cough stimulus,"[4]; dog, oral, dose not given",43.8%
"Cn1c(=O)c2c(ncn2CC(O)CO)n(C)c1=O (stereo not shown) [dihydroxypropyltheophylline, reference compound]",EC50,[7],76 µM
